Laboratory results: US3957812A, “Derivatives of 2-phenoxyacetamido-5-nitro-thiazole” (priority 1973, dated 1976)

Columns and labels:
Format in all cases: cell-based
Details in all cases: in words
[1] = test system: Trichomonas vaginalis; assay: Test for trichomonacidal activity
Text: (§1) Biological tests have been performed with a great number of compounds of formula (I) using the following techniques: (1) Test for amoebicidal activity described by R. CAVIER, Ann. pharm. franc., 1960, 18, pages 583-589 and by R. CAVIER, and J. CENAC, Bull. Soc. Path. exot. 1972, 65, pages 399-404. (2) Test for trichomonacidal activity described by R. CAVIER and P. BUOT, Ann. pharm. franc., 1964, 22, pages 211-216 and by R. CAVIER and J. CENAC, Semaine des Hopitaux, 1972, 48, pages 391-394). (3) Tests for anthelminthics described for nematodes (such as Syphacia obvelata) by R. CAVIER, Bull. Soc. Path. exot., 1962, 55, pages 412-417 and, for cestodes (such as Hymenolepis nana), by R. CAVIER, Ann. pharm. franc., 1956, 14, pages 545-552 and by R. CAVIER and M. J. NOTTEGHEM, Ann. pharm. franc. 1968, 28, pages 603-606.

[2] = test system: Entomoeba dysenteriae; assay: Test for amoebicidal activity
Text: as §1

[3] = test system: bacteria; assay: Activity against bacteria
Experimental: (5) Method for determining bacteriostatic doses
A common gelose medium of the following composition is used.
The pH is adjusted at 7.2 and the medium is sterilized during 30 minutes at 120°C.
The same method as for the determination of fungistatic doses is used, except that the various dilutions of each compound are added to the gelose medium, the solvent concentration never exceeding 3%. Tubes containing […] of the compounds per ml are prepared.
Cultures of each strain in the liquid medium are prepared and, after 24 hours of incubation at 37°C, dilutions of these cultures in ordinary broth are prepared as follows:
By means of these dilutions, scratches of a length of 4 to 5 cm are made on the previously dried surface of the gelose medium to which various amounts of the compound to be tested have been added.

[4] = test system: fungi; assay: Activity against fungi
Experimental: (4) Method for determining fungistatic doses:
A liquide Sabouraud medium having the following composition is used:
If necessary, the pH is adjusted at 6.4 and the medium is sterilized.
The compounds are dissolved in dimethylformamide to which polyethylene glycol is sometimes added. From the mother-liquor, successive diluted solutions are prepared in the liquid Sabouraud medium, so as to obtain concentrations of 1, 3, 10, 30 100 and […] per ml. For the first dilution, one should not add more than 10% of the mother-liquor to the Sabouraud medium. Subsequently 9 ml per tube of the various solutions in the liquid Sabouraud medium are distributed.
Reference tubes corresponding to the highest solvent concentrations are also prepared.
Cultures of the various dermatophyte strains on Sabouraud gelose medium are prepared. From 1 to 2 months old cultures, homogeneous suspensions of said cultures in the liquid Sabouraud medium are prepared, the obtained suspensions being stirred in the presence of glass pearls having a light transmission of about 40%.
One drop of said suspension is introduced in the tubes containing the various concentrations of the compound to be tested.
at 25°C ± 2°C in the dark
10 days of incubation for dermatophytes.

O=C(COc1ccccc1)Nc1ncc([N+](=O)[O-])s1 [2-phenoxyacetamido-5-nitro-thiazole]
no activity: activity against Trichomonas vaginalis [1] | activity against Entomoeba dysenteriae [2] | activity against bacteria [3] | activity against fungi [4]
